Laboratory results as given in US20230085307A1, “PYRIDAZINONE COMPOUND AND HERBICIDE” (NISSAN CHEMICAL CORPORATION, priority 2019, published 2023).

Test system: late watergrass
Assay: Test Example 1: herbicidal activity, application before weed generation under submerged conditions (Table 16, symbol A)
Assay type: in vivo, late watergrass (Echinochloa oryzicola)
Details: 320 g/ha applied herbicide
Procedure, shortened: (§1)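 Alluvial soil was flooded to 4 cm depth, weed seeds were sown mixed and 2.5-leaf rice seedlings were transplanted. On sowing day, the compound's emulsion, diluted in water to a set dose, was applied to the water surface. Plants grew at 25–30 °C and were scored 0–5 after three weeks.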

SMILES	Herbicidal effect on A: late watergrass (grade 0-5)
COCCSCc1ccc(-c2sc3ccc(F)cc3c2-c2c(O)c(C)nn(C)c2=O)cc1 [2-327]	3 (Herbicidal rate of 40% or more and less than 70%)
Cc1nn(C)c(=O)c(-c2c(-c3ccc(CSCC(F)(F)F)cc3)sc3ccc(F)cc23)c1O [2-331]	3 (Herbicidal rate of 40% or more and less than 70%)
Cc1nn(C)c(=O)c(-c2c(-c3ccc(C#N)cc3)sc3ccc(F)cc23)c1O [2-340]	5 (Herbicidal rate of 90% or more (almost completely withered))

Test system: Japanese bulrush
Assay: Test Example 1: herbicidal activity, application before weed generation under submerged conditions (Table 16, symbol B)
Assay type: in vivo, Japanese bulrush (Schoenoplectus juncoides)
Details: 320 g/ha applied herbicide
Procedure, shortened: as §1

SMILES	Herbicidal effect on B: Japanese bulrush (grade 0-5)
COCCSCc1ccc(-c2sc3ccc(F)cc3c2-c2c(O)c(C)nn(C)c2=O)cc1 [2-327]	3 (Herbicidal rate of 40% or more and less than 70%)
Cc1nn(C)c(=O)c(-c2c(-c3ccc(CSCC(F)(F)F)cc3)sc3ccc(F)cc23)c1O [2-331]	3 (Herbicidal rate of 40% or more and less than 70%)
Cc1nn(C)c(=O)c(-c2c(-c3ccc(C#N)cc3)sc3ccc(F)cc23)c1O [2-340]	5 (Herbicidal rate of 90% or more (almost completely withered))

Test system: late watergrass
Assay: Test Example 2: herbicidal activity, application during weed generation under submerged conditions (Table 17, symbol A)
Assay type: in vivo, late watergrass (Echinochloa oryzicola)
Details: AAH 320 g/ha; application during weed generation, submerged conditions
Procedure, shortened: (§2)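 Alluvial soil in Wagner pots was flooded to 4 cm depth and sown with the three weeds together; pots were kept in a greenhouse at 25° C. to 30° C. At the one to two leaf stage, an emulsion formulation diluted in water to a set rate went onto the water surface; scored three weeks later.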

SMILES	herbicidal effect rating, A: late watergrass
COCCSCc1ccc(-c2sc3ccc(F)cc3c2-c2c(O)c(C)nn(C)c2=O)cc1 [2-327]	0 (Herbicidal rate of 5% or less (almost no effect))
Cc1nn(C)c(=O)c(-c2c(-c3ccc(CSCC(F)(F)F)cc3)sc3ccc(F)cc23)c1O [2-331]	3 (Herbicidal rate of 40% or more and less than 70%)
Cc1nn(C)c(=O)c(-c2c(-c3ccc(C#N)cc3)sc3ccc(F)cc23)c1O [2-340]	5 (Herbicidal rate of 90% or more (almost completely withered))

Test system: oval-leafed pondweed
Assay: Test Example 2: herbicidal activity, application during weed generation under submerged conditions (Table 17, symbol C)
Assay type: in vivo, oval-leafed pondweed (Monochoria vaginalis)
Details: AAH 320 g/ha; application during weed generation, submerged conditions
Procedure, shortened: as §2

SMILES	herbicidal effect rating, C: oval-leafed pondweed
COCCSCc1ccc(-c2sc3ccc(F)cc3c2-c2c(O)c(C)nn(C)c2=O)cc1 [2-327]	0 (Herbicidal rate of 5% or less (almost no effect))
Cc1nn(C)c(=O)c(-c2c(-c3ccc(CSCC(F)(F)F)cc3)sc3ccc(F)cc23)c1O [2-331]	0 (Herbicidal rate of 5% or less (almost no effect))
Cc1nn(C)c(=O)c(-c2c(-c3ccc(C#N)cc3)sc3ccc(F)cc23)c1O [2-340]	3 (Herbicidal rate of 40% or more and less than 70%)

Test system: barnyard grass
Assay: Test Example 3: herbicidal effect by foliage application, Wagner pot (Table 18, symbol H)
Assay type: in vivo, barnyard grass (Echinochloa crus-galli)
Details: amount of applied herbicide 320 g/ha
Procedure, shortened: (§3)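 Plants were sown in alluvial soil held under 0.1–0.5 cm standing water and grown 14 days in a greenhouse at 25–30 °C. An emulsifiable formulation, water-diluted to the set dose, was then sprayed onto the foliage, and effects were scored three weeks later using previously defined criteria.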

SMILES	herbicidal effect on H: barnyard grass
COCCSCc1ccc(-c2sc3ccc(F)cc3c2-c2c(O)c(C)nn(C)c2=O)cc1 [2-327]	5 (Herbicidal rate of 90% or more (almost completely withered))
Cc1nn(C)c(=O)c(-c2c(-c3ccc(CSCC(F)(F)F)cc3)sc3ccc(F)cc23)c1O [2-331]	5 (Herbicidal rate of 90% or more (almost completely withered))
Cc1nn(C)c(=O)c(-c2c(-c3ccc(C#N)cc3)sc3ccc(F)cc23)c1O [2-340]	5 (Herbicidal rate of 90% or more (almost completely withered))

Test system: Chinese sprangletop
Assay: Test Example 3: herbicidal effect by foliage application, Wagner pot (Table 18, symbol D)
Assay type: in vivo, chinese sprangletop (Leptochloa chinensis)
Details: amount of applied herbicide 320 g/ha
Procedure, shortened: as §3

SMILES	herbicidal effect on D: Chinese sprangletop
COCCSCc1ccc(-c2sc3ccc(F)cc3c2-c2c(O)c(C)nn(C)c2=O)cc1 [2-327]	3 (Herbicidal rate of 40% or more and less than 70%)
Cc1nn(C)c(=O)c(-c2c(-c3ccc(CSCC(F)(F)F)cc3)sc3ccc(F)cc23)c1O [2-331]	0 (Herbicidal rate of 5% or less (almost no effect))
Cc1nn(C)c(=O)c(-c2c(-c3ccc(C#N)cc3)sc3ccc(F)cc23)c1O [2-340]	5 (Herbicidal rate of 90% or more (almost completely withered))

Test system: rice flat sedge
Assay: Test Example 3: herbicidal effect by foliage application, Wagner pot (Table 18, symbol E)
Assay type: in vivo, rice flat sedge (Cyperus iria)
Details: amount of applied herbicide 320 g/ha
Procedure, shortened: as §3

SMILES	herbicidal effect on E: rice flat sedge
COCCSCc1ccc(-c2sc3ccc(F)cc3c2-c2c(O)c(C)nn(C)c2=O)cc1 [2-327]	4 (Herbicidal rate of 70% or more and less than 90%)
Cc1nn(C)c(=O)c(-c2c(-c3ccc(CSCC(F)(F)F)cc3)sc3ccc(F)cc23)c1O [2-331]	4 (Herbicidal rate of 70% or more and less than 90%)
Cc1nn(C)c(=O)c(-c2c(-c3ccc(C#N)cc3)sc3ccc(F)cc23)c1O [2-340]	5 (Herbicidal rate of 90% or more (almost completely withered))

Test system: Italian ryegrass
Assay: Test Example 4: herbicidal effect by soil treatment (Table 19, symbol K)
Assay type: in vivo, Italian ryegrass (Lolium multiflorum)
Details: amount of applied herbicide 320 g/ha
Procedure, shortened: (§4)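 In this soil treatment, the formulated compound reached the seeds only through the soil: seeds were buried about 1.5 cm deep in sterilized diluvial soil, then the diluted emulsion was sprayed over the surface. After three weeks at 25° C. to 30° C. in a greenhouse, effects were graded on criteria from an earlier test.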

SMILES	herbicidal effect on K: Italian ryegrass
COCCSCc1ccc(-c2sc3ccc(F)cc3c2-c2c(O)c(C)nn(C)c2=O)cc1 [2-327]	4 (Herbicidal rate of 70% or more and less than 90%)
Cc1nn(C)c(=O)c(-c2c(-c3ccc(CSCC(F)(F)F)cc3)sc3ccc(F)cc23)c1O [2-331]	5 (Herbicidal rate of 90% or more (almost completely withered))
Cc1nn(C)c(=O)c(-c2c(-c3ccc(C#N)cc3)sc3ccc(F)cc23)c1O [2-340]	5 (Herbicidal rate of 90% or more (almost completely withered))

Test system: windgrass
Assay: Test Example 4: herbicidal effect by soil treatment (Table 19, symbol L)
Assay type: in vivo, windgrass (Apera spica-venti)
Details: amount of applied herbicide 320 g/ha
Procedure, shortened: as §4

SMILES	herbicidal effect on L: windgrass
COCCSCc1ccc(-c2sc3ccc(F)cc3c2-c2c(O)c(C)nn(C)c2=O)cc1 [2-327]	0 (Herbicidal rate of 5% or less (almost no effect))
Cc1nn(C)c(=O)c(-c2c(-c3ccc(CSCC(F)(F)F)cc3)sc3ccc(F)cc23)c1O [2-331]	0 (Herbicidal rate of 5% or less (almost no effect))
Cc1nn(C)c(=O)c(-c2c(-c3ccc(C#N)cc3)sc3ccc(F)cc23)c1O [2-340]	4 (Herbicidal rate of 70% or more and less than 90%)

Test system: redroot pigweed
Assay: Test Example 4: herbicidal effect by soil treatment (Table 19, symbol N)
Assay type: in vivo, redroot pigweed (Amaranthus retroflexus)
Details: amount of applied herbicide 320 g/ha
Procedure, shortened: as §4

SMILES	herbicidal effect on N: redroot pigweed
COCCSCc1ccc(-c2sc3ccc(F)cc3c2-c2c(O)c(C)nn(C)c2=O)cc1 [2-327]	4 (Herbicidal rate of 70% or more and less than 90%)
Cc1nn(C)c(=O)c(-c2c(-c3ccc(CSCC(F)(F)F)cc3)sc3ccc(F)cc23)c1O [2-331]	5 (Herbicidal rate of 90% or more (almost completely withered))
Cc1nn(C)c(=O)c(-c2c(-c3ccc(C#N)cc3)sc3ccc(F)cc23)c1O [2-340]	5 (Herbicidal rate of 90% or more (almost completely withered))

Test system: green foxtail
Assay: Test Example 5: herbicidal effect by foliage application, plastic box (Table 20, symbol G)
Assay type: in vivo, green foxtail (Setaria viridis)
Details: foliage application, AAH 320 g/ha, evaluated three weeks after application
Procedure, shortened: (§5)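 Plants were sown into sterilized diluvial soil under about 1.5 cm cover and kept in a greenhouse at 25° C. to 30° C. Fourteen days on, foliage received an even spray of the diluted emulsion. Herbicidal or crop effect was judged three weeks afterwards.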

SMILES	G: green foxtail, herbicidal effect (criteria 0-5)
COCCSCc1ccc(-c2sc3ccc(F)cc3c2-c2c(O)c(C)nn(C)c2=O)cc1 [2-327]	5 (Herbicidal rate of 90% or more (almost completely withered))
Cc1nn(C)c(=O)c(-c2c(-c3ccc(CSCC(F)(F)F)cc3)sc3ccc(F)cc23)c1O [2-331]	5 (Herbicidal rate of 90% or more (almost completely withered))
Cc1nn(C)c(=O)c(-c2c(-c3ccc(C#N)cc3)sc3ccc(F)cc23)c1O [2-340]	5 (Herbicidal rate of 90% or more (almost completely withered))

Test system: barnyard grass
Assay: Test Example 5: herbicidal effect by foliage application, plastic box (Table 20, symbol H)
Assay type: in vivo, barnyard grass (Echinochloa crus-galli)
Details: foliage application, AAH 320 g/ha, evaluated three weeks after application
Procedure, shortened: as §5

SMILES	H: barnyard grass, herbicidal effect (criteria 0-5)
COCCSCc1ccc(-c2sc3ccc(F)cc3c2-c2c(O)c(C)nn(C)c2=O)cc1 [2-327]	5 (Herbicidal rate of 90% or more (almost completely withered))
Cc1nn(C)c(=O)c(-c2c(-c3ccc(CSCC(F)(F)F)cc3)sc3ccc(F)cc23)c1O [2-331]	5 (Herbicidal rate of 90% or more (almost completely withered))
Cc1nn(C)c(=O)c(-c2c(-c3ccc(C#N)cc3)sc3ccc(F)cc23)c1O [2-340]	5 (Herbicidal rate of 90% or more (almost completely withered))

Test system: wild oat
Assay: Test Example 5: herbicidal effect by foliage application, plastic box (Table 20, symbol I)
Assay type: in vivo, wild oat (Avena fatua)
Details: foliage application, AAH 320 g/ha, evaluated three weeks after application
Procedure, shortened: as §5

SMILES	I: wild oat, herbicidal effect (criteria 0-5)
COCCSCc1ccc(-c2sc3ccc(F)cc3c2-c2c(O)c(C)nn(C)c2=O)cc1 [2-327]	3 (Herbicidal rate of 40% or more and less than 70%)
Cc1nn(C)c(=O)c(-c2c(-c3ccc(CSCC(F)(F)F)cc3)sc3ccc(F)cc23)c1O [2-331]	3 (Herbicidal rate of 40% or more and less than 70%)
Cc1nn(C)c(=O)c(-c2c(-c3ccc(C#N)cc3)sc3ccc(F)cc23)c1O [2-340]	5 (Herbicidal rate of 90% or more (almost completely withered))

Test system: blackgrass
Assay: Test Example 5: herbicidal effect by foliage application, plastic box (Table 20, symbol J)
Assay type: in vivo, blackgrass (Alopecurus myosuroides)
Details: foliage application, AAH 320 g/ha, evaluated three weeks after application
Procedure, shortened: as §5

SMILES	J: blackgrass, herbicidal effect (criteria 0-5)
COCCSCc1ccc(-c2sc3ccc(F)cc3c2-c2c(O)c(C)nn(C)c2=O)cc1 [2-327]	4 (Herbicidal rate of 70% or more and less than 90%)
Cc1nn(C)c(=O)c(-c2c(-c3ccc(CSCC(F)(F)F)cc3)sc3ccc(F)cc23)c1O [2-331]	4 (Herbicidal rate of 70% or more and less than 90%)
Cc1nn(C)c(=O)c(-c2c(-c3ccc(C#N)cc3)sc3ccc(F)cc23)c1O [2-340]	5 (Herbicidal rate of 90% or more (almost completely withered))

Test system: Italian ryegrass
Assay: Test Example 5: herbicidal effect by foliage application, plastic box (Table 20, symbol K)
Assay type: in vivo, Italian ryegrass (Lolium multiflorum)
Details: foliage application, AAH 320 g/ha, evaluated three weeks after application
Procedure, shortened: as §5

SMILES	K: Italian ryegrass, herbicidal effect (criteria 0-5)
COCCSCc1ccc(-c2sc3ccc(F)cc3c2-c2c(O)c(C)nn(C)c2=O)cc1 [2-327]	4 (Herbicidal rate of 70% or more and less than 90%)
Cc1nn(C)c(=O)c(-c2c(-c3ccc(CSCC(F)(F)F)cc3)sc3ccc(F)cc23)c1O [2-331]	4 (Herbicidal rate of 70% or more and less than 90%)
Cc1nn(C)c(=O)c(-c2c(-c3ccc(C#N)cc3)sc3ccc(F)cc23)c1O [2-340]	5 (Herbicidal rate of 90% or more (almost completely withered))

Test system: redroot pigweed
Assay: Test Example 5: herbicidal effect by foliage application, plastic box (Table 20, symbol N)
Assay type: in vivo, redroot pigweed (Amaranthus retroflexus)
Details: foliage application, AAH 320 g/ha, evaluated three weeks after application
Procedure, shortened: as §5

SMILES	N: redroot pigweed, herbicidal effect (criteria 0-5)
COCCSCc1ccc(-c2sc3ccc(F)cc3c2-c2c(O)c(C)nn(C)c2=O)cc1 [2-327]	5 (Herbicidal rate of 90% or more (almost completely withered))
Cc1nn(C)c(=O)c(-c2c(-c3ccc(CSCC(F)(F)F)cc3)sc3ccc(F)cc23)c1O [2-331]	5 (Herbicidal rate of 90% or more (almost completely withered))
Cc1nn(C)c(=O)c(-c2c(-c3ccc(C#N)cc3)sc3ccc(F)cc23)c1O [2-340]	5 (Herbicidal rate of 90% or more (almost completely withered))
